Test system: forearm and dorsum of the foot skin
Test: Skin vasodilatory response to topical application of 1% methyl nicotinate, Laser Doppler Perfusion Imaging
Type: in vivo, human
Conditions: for maximal vasodilatory response: compared with acetylcholine and sodium nitroprusside
Procedure: Vasodilation induced by topical application of methyl nicotinate was evaluated and compared with the vasodilatory response to acetylcholine and sodium nitroprusside in healthy subjects and diabetic neuropathic patients. Ten diabetic patients with peripheral neuropathy and 10 age- and sex-matched healthy control subjects were enrolled. The vasodilatory response to topical application of 1% methyl nicotinate and a placebo emulsion at the forearm and dorsum of the foot skin at 4, 15, 30, 60 and 120 min was measured using Laser Doppler Perfusion Imaging. The vasodilatory response to iontophoresis of 1% acetylcholine and 1% sodium nitroprusside solutions was also evaluated.

`COC(=O)c1cccnc1` [methyl nicotinate] was tested, and the vasodilatory response (control group (healthy subjects), foot, topical 1%, compared to acetylcholine and sodium nitroprusside responses) was “higher”, the maximal vasodilatory response (control group (healthy subjects), forearm, topical 1%) was “similar” and the maximal vasodilatory response (diabetic patients with peripheral neuropathy, forearm and foot, topical 1%) was “similar”. For the same compound, the “time after application at which vasodilation was present” value (topical 1% methyl nicotinate) was 5 min, the “time of decline of vasodilation to pre-application levels” value (topical 1% methyl nicotinate) was 120 min and the “time of peak vasodilation” value (topical 1% methyl nicotinate) was 15 to 30 min.
